BindingDB's records for patent US12509424 (Nippon Shinyaku, 2025)

Biological target: Platelet-derived growth factor receptor beta (Homo sapiens, UniProt P09619)
Experiment: PDGFR-β Tyrosine Kinase Inhibitory Action
Description: This DMSO solution was diluted by 8 times with an assay buffer 1 (50 mM HEPES (pH 7.0), 0.02% NaN3, 0.01% Bovine Serum Albumin, 0.1 mM orthovanadate, 1 mM Dithiothreitol, 5 mM MgCl2, and 1 mM MnCl2) and further diluted by 5 times with an assay buffer 2 (50 mM HEPES (pH 7.0), 0.02% NaN3, 0.01% Bovine Serum Albumin, 0.1 mM orthovanadate, 1 mM Dithiothreitol, 5 mM MgCl2, 1 mM MnCl2, and 40 nM Supplemented Enzymatic Buffer (cisbio)).2. Measurement of PDGFR-β Tyrosine Kinase Inhibitory ActionFor the measurement, the HTRF KinEASE-TK kit from Cisbio Bioassays SAS was used. To a 384 well plate, the test substance solution was added at 4 μL each, then 2 μL of a PDGFR-β enzyme solution (final concentration of 1 ng/μL, Carna Biosciences, Inc.) and 4 μL of a substrate solution obtained by adding 0.6 μM ATP to TK substrate-3-biotin (cisbio) were added, and the solution was allowed to react at 30° C. for 30 minutes at a final concentration of the test substance being 0.01 to 10,000 nM.Thereafter, 10 μL of a detection solution (cisbio) was added to each well and allowed to react at 30° C. for 1 hour. The fluorescence intensity was measured with a microplate reader (Spectra Max M5, Molecular device).

Sequence of Platelet-derived growth factor receptor beta (P09619 whole entry): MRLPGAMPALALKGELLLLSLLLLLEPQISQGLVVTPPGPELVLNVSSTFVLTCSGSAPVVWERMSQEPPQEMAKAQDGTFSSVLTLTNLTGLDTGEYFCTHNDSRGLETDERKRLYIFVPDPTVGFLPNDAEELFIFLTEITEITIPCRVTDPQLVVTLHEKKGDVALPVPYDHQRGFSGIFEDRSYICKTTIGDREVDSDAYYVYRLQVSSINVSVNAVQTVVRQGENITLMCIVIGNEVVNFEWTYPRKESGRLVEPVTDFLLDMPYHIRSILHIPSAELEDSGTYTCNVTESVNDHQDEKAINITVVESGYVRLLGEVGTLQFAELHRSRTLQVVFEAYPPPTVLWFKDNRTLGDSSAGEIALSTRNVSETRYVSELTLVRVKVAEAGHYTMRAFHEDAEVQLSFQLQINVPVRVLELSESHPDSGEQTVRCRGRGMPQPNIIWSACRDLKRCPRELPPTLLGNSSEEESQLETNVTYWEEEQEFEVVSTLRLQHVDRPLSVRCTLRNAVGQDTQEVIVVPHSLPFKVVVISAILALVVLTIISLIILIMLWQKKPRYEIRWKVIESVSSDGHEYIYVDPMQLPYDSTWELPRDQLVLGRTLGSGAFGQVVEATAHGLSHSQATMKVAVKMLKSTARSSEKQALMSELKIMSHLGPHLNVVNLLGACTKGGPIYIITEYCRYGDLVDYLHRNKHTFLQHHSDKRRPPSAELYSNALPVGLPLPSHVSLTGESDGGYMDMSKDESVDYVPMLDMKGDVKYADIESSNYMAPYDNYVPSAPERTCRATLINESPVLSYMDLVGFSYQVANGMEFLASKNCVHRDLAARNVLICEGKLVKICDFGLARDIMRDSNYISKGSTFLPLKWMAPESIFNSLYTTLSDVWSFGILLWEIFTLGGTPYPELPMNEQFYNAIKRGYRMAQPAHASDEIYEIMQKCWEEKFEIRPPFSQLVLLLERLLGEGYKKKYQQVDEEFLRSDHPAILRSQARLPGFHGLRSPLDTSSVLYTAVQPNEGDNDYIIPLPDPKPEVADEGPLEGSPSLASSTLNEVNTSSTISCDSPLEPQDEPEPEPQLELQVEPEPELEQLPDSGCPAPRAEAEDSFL

## CC(=O)Nc1ccc(CNc2cc(C(=O)N[C@H]3CCCC[C@@H]3O)ccc2C)cn1 [US12509424, Example 116]
  IC50: 66 nM
